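Growth conditions: 96-well plates. Treatment: test compound, 48 hours, 5 concentrations. Analysis: linear interpolation between bracketing concentrations; unreached endpoints set to highest concentration. TGI is the concentration that stops growth completely.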

Test systems include MALME-3M melanoma; MDA-MB-231 breast; OVCAR-5 ovarian; EKVX NSCLC; RXF 393 renal; DU-145 prostate; SK-MEL-28 melanoma; A549 NSCLC; MDA-MB-435; U251 CNS.
Holding throughout (assay): growth of human tumour cells (NCI), 48 h

As for `CCOC(=O)C1=CC(C)(C(=O)OCC)Nc2c(nc(OC)n(C)c2=O)N1` (stereo not given), the TGI in the experiment on MALME-3M melanoma, in the experiment on MDA-MB-231 breast, in the experiment on OVCAR-5 ovarian, in the experiment with EKVX NSCLC, in the experiment with RXF 393 renal and with DU-145 prostate was greater than 10 µM each time. In addition, the TGI with SK-MEL-28 melanoma, with A549 NSCLC, with MDA-MB-435 and with U251 CNS was greater than 10 µM throughout.
Regarding `CN(C)Cc1cc(C(=O)/C=C/c2ccc(Cl)cc2)cc(CN(C)C)c1O`, the TGI in the experiment on MALME-3M melanoma was 24.8 µM; with MDA-MB-231 breast it was 23.5 µM; in the experiment with OVCAR-5 ovarian, 54.5 µM; with EKVX NSCLC, 38.8 µM; in the experiment with RXF 393 renal, 30.3 µM; in the experiment on DU-145 prostate, 24.4 µM. In addition, the TGI in the experiment with SK-MEL-28 melanoma worked out at 26.4 µM; with A549 NSCLC, 28.7 µM; in the experiment on MDA-MB-435, 26.5 µM; in the experiment with U251 CNS it was 28 µM.
Regarding `NNC(N)Nc1ccccc1` (stereo not given), the TGI with MALME-3M melanoma, in the experiment with MDA-MB-231 breast, in the experiment with OVCAR-5 ovarian, in the experiment with EKVX NSCLC, in the experiment on RXF 393 renal and in the experiment with DU-145 prostate was greater than 100 µM throughout. Further, the TGI in the experiment with SK-MEL-28 melanoma, in the experiment with A549 NSCLC, with MDA-MB-435 and in the experiment on U251 CNS was greater than 100 µM in each case.
Turning to `COc1ccc(C(=O)Sc2c(-c3ccccc3)c(=O)n(-c3ccccc3)c(=S)n2-c2ccccc2)cc1`, the TGI in the experiment with MALME-3M melanoma is greater than 100 µM; in the experiment with MDA-MB-231 breast, greater than 100 µM; with OVCAR-5 ovarian, greater than 100 µM; in the experiment with EKVX NSCLC, greater than 100 µM; in the experiment on RXF 393 renal, 98.4 µM; in the experiment on DU-145 prostate, greater than 100 µM. Besides, the TGI in the experiment on SK-MEL-28 melanoma, in the experiment with A549 NSCLC, in the experiment on MDA-MB-435 and with U251 CNS was greater than 100 µM throughout.
As to `C[C@@H]1C[C@H]2[C@@H]3CCC4=CC(=O)C=C[C@]4(C)[C@@]3(Cl)[C@@H](Cl)C[C@]2(C)[C@@]1(O)C(=O)COP(=O)(O)O`, the TGI in the experiment with MALME-3M melanoma, with MDA-MB-231 breast, in the experiment with OVCAR-5 ovarian, in the experiment on EKVX NSCLC, in the experiment with RXF 393 renal and in the experiment with DU-145 prostate was greater than 100 µM throughout. For the same compound, the TGI in the experiment with SK-MEL-28 melanoma, in the experiment with A549 NSCLC, with MDA-MB-435 and in the experiment with U251 CNS was greater than 100 µM each time.
As for `Nc1nc(Cl)c(N)c(NC23CC4CC(CC(C4)C2)C3)n1`, the TGI came to 10.1 µM with MALME-3M melanoma; 3.83 µM with MDA-MB-231 breast; 2.84 µM in the experiment on OVCAR-5 ovarian; 5.36 µM in the experiment on EKVX NSCLC; 3.24 µM in the experiment on RXF 393 renal; 7.05 µM with DU-145 prostate. The TGI with SK-MEL-28 melanoma amounted to 3.6 µM; with A549 NSCLC, 6.16 µM; with MDA-MB-435 it was 3.41 µM; with U251 CNS, 3.06 µM.
`NC(N)=NCCN=C(N)N`: the TGI in the experiment with MALME-3M melanoma, with MDA-MB-231 breast, with OVCAR-5 ovarian, in the experiment on EKVX NSCLC, in the experiment with RXF 393 renal and in the experiment with DU-145 prostate was greater than 100 µM each time. Also, the TGI in the experiment on SK-MEL-28 melanoma, in the experiment on A549 NSCLC, in the experiment on MDA-MB-435 and in the experiment with U251 CNS was greater than 100 µM throughout.
For `C[C@]12CC[C@H](O)CC1=CC[C@@H]1[C@@H]2CC[C@]2(C)C(=O)[C@@H](N3CCOCC3)C[C@@H]12`, the TGI with MALME-3M melanoma, in the experiment on MDA-MB-231 breast, in the experiment with OVCAR-5 ovarian, in the experiment on EKVX NSCLC, in the experiment with RXF 393 renal and with DU-145 prostate was greater than 100 µM each time. In addition, the TGI in the experiment with SK-MEL-28 melanoma, in the experiment on A549 NSCLC, in the experiment on MDA-MB-435 and with U251 CNS was greater than 100 µM throughout.
For `Oc1ccc2ccccc2c1/C=C/c1ccc2c(Br)cc(Br)c(O)c2n1`, the TGI in the experiment on MALME-3M melanoma is 32 µM; with MDA-MB-231 breast it was 23.4 µM; in the experiment with OVCAR-5 ovarian, 21.7 µM; in the experiment with EKVX NSCLC, 15.3 µM; with RXF 393 renal, 24.7 µM; with DU-145 prostate, 25.7 µM. Also, the TGI is 31.8 µM in the experiment with SK-MEL-28 melanoma, 20.5 µM in the experiment on A549 NSCLC, 36.2 µM in the experiment with MDA-MB-435 and 21.6 µM in the experiment on U251 CNS.
For `O=C1N=c2ccccc2=C1c1c(O)[nH]c2ccccc12`, the TGI with MALME-3M melanoma was 35.5 µM; with MDA-MB-231 breast, greater than 100 µM; in the experiment with OVCAR-5 ovarian, 12.4 µM; with EKVX NSCLC, 71.6 µM; in the experiment with RXF 393 renal it was 16.3 µM; in the experiment on DU-145 prostate it was 54.6 µM. The TGI in the experiment with SK-MEL-28 melanoma was greater than 100 µM; in the experiment on A549 NSCLC, greater than 100 µM; with MDA-MB-435 it was greater than 100 µM; in the experiment on U251 CNS, 24.1 µM.
Take `S=C(NCc1ccccc1)c1nc[nH]c1C(=S)NCc1ccccc1`: the TGI in the experiment on MALME-3M melanoma worked out at 24.6 µM; in the experiment on MDA-MB-231 breast, 22.3 µM; in the experiment with OVCAR-5 ovarian, 21.7 µM; with EKVX NSCLC it was 17 µM; with RXF 393 renal, 24.9 µM; in the experiment on DU-145 prostate, 21.6 µM. Moreover, the TGI is 26.9 µM with SK-MEL-28 melanoma, 15.1 µM in the experiment on A549 NSCLC, 19.6 µM in the experiment with MDA-MB-435 and 18.4 µM in the experiment on U251 CNS.
For the compound `COc1ccc(N=C2SC(=N/N=c3\sc4ccccc4n3C)SC2=Nc2ccc(OC)cc2)cc1`, the TGI was greater than 100 µM with MALME-3M melanoma; 66 µM in the experiment with MDA-MB-231 breast; greater than 100 µM in the experiment with OVCAR-5 ovarian; greater than 100 µM with EKVX NSCLC; greater than 100 µM in the experiment with RXF 393 renal; greater than 100 µM with DU-145 prostate. For the same compound, the TGI in the experiment with SK-MEL-28 melanoma, in the experiment with A549 NSCLC, with MDA-MB-435 and in the experiment on U251 CNS was greater than 100 µM in each case.
